Reference: the supplement of paper PMC8882468

Columns and labels:
Test in all cases: CTG-3D luminescence at 96 h relative to day-0 seeding control (ratio to day 0); higher = more growth / less cytotoxicity; PDxO 3D drug screen, 96 h, CTG-3D normalised to day-0 seeding control.
HCI-008 = system: HCI-008 (organoid from a HER2-enriched breast cancer xenograft)
HCI-002 = system: HCI-002 (organoid from a triple-negative breast cancer xenograft)
HCI-023 = system: HCI-023 (organoid from a triple-negative breast cancer xenograft)
HCI-024 = system: HCI-024 (organoid from a breast cancer xenograft)
HCI-017.E2 = system: HCI-017.E2 (organoid from an ER-positive breast cancer xenograft)

CC(C)n1nc(-c2ccc3oc(N)nc3c2)c2c(N)ncnc21 [sapanisertib]
CTG-3D luminescence at 96 h
Settings	12.5 pM	0.00025 µM	0.005 µM	0.1 µM	1 µM	10 µM	100 µM	625 fM
HCI-002, days in culture: 62	2.83	2.68	2.7	0.903	0.579	0.418	0.0431	2.93
HCI-002, days in culture: 82	3.4	3.17	2.04	0.983	0.633	0.403	0.0264	2.93
HCI-002, days in culture: 91	4.16	3.41	2.81	1.44	0.846	0.697	0.0524	4.41
HCI-002, days in culture: 191	2.25	2.71	2.07	1.04	0.718	0.443	0.0974	2.61
HCI-002, days in culture: 209	2.41	2.26	2.27	0.676	0.446	0.209	0.0077	2.18
HCI-002, days in culture: 227	5.28	4.74	4.01	1.33	0.801	0.598	0.0372	5.6
HCI-008, days in culture: 228	1.63	1.78	0.85	0.502	0.33	0.185	0.0307	1.78
HCI-008, days in culture: 244	1.15	1.75	1.82	0.854	0.511	0.267	0.0296	2.11
HCI-017.E2, days in culture: 85	2.96	2.53	2.39	0.979	0.43	0.202	0.141	2.59
HCI-023, days in culture: 111	1.32	1.65	1.1	0.701	0.401	0.462	0.0354	1.44
HCI-023, days in culture: 128	1.42	1.44	0.963	0.727	0.428	0.484	0.0623	1.75
HCI-024, days in culture: 105	1.5	1.82	1.16	0.885	0.716	0.64	0.243	1.88
HCI-024, days in culture: 122	2.28	2.85	1.86	0.922	0.842	0.81	0.3	2.57
HCI-024, days in culture: 163	2.15	1.91	1.59	1.61	1.1	0.902	0.363	1.85

HCI-017.E2
Settings	CTG-3D luminescence at 96 h
12.5 pM	1.69
0.00025 µM	2.18
0.005 µM	1.703
0.1 µM	0.694
1 µM	0.493
10 µM	0.251
100 µM	0.126
625 fM	2.02

Cc1nc(-c2cn3c(n2)-c2ccc(-c4cnn(C(C)(C)C(N)=O)c4)cc2OCC3)n(C(C)C)n1 [taselisib]
CTG-3D luminescence at 96 h
Settings	12.5 pM	0.00025 µM	0.005 µM	0.1 µM	1 µM	10 µM	100 µM	625 fM
HCI-002, days in culture: 62	2.78	2.75	2.69	2.06	1.75	1.12	0.0194	3.01
HCI-002, days in culture: 82	2.76	2.9	2.23	2.39	1.79	1.08	0.0159	3.2
HCI-002, days in culture: 91	3.66	3.28	2.4	2.4	1.64	1.32	0.0254	3.59
HCI-002, days in culture: 191	2.84	2.45	2.55	2.13	2.1	0.981	0.137	2.84
HCI-002, days in culture: 209	2.15	2.3	2.09	1.75	1.5	0.726	0.0139	2.45
HCI-002, days in culture: 227	4.99	5.28	4.54	3.54	2.79	1.69	0.0558	5.91
HCI-008, days in culture: 228	1.62	1.54	1.28	0.687	0.439	0.314	0.174	1.8
HCI-008, days in culture: 244	1.38	1.94	1.92	0.848	0.448	0.358	0.123	2.25
HCI-017.E2, days in culture: 85	3.03	2.91	1.97	0.848	0.668	0.194	0.166	2.38
HCI-023, days in culture: 111	1.53	1.41	1.4	0.966	0.707	0.842	0.0187	1.35
HCI-023, days in culture: 128	1.9392	1.52	1.88	1.68	1.2	1.18	0.33	1.86
HCI-024, days in culture: 105	1.47	1.44	1.54	1.77	1.34	0.981	0.403	1.9
HCI-024, days in culture: 122	2.21	2.49	1.79	1.88	1.6	1.81	0.258	2.63
HCI-024, days in culture: 163	1.36	2.13	1.7	2.36	2.06	1.62	0.316	2

HCI-017.E2
Settings	CTG-3D luminescence at 96 h
12.5 pM	1.88
0.00025 µM	1.78
0.005 µM	1.32
0.1 µM	0.638
1 µM	0.448
10 µM	0.204
100 µM	0.178
625 fM	2.06

Cc1cc(Nc2ncnc3ccc(NC4=NC(C)(C)CO4)cc23)ccc1Oc1ccn2ncnc2c1 [tucatinib]
CTG-3D luminescence at 96 h
Settings	12.5 pM	0.00025 µM	0.005 µM	0.1 µM	1 µM	10 µM	100 µM	625 fM
HCI-002, days in culture: 62	2.76	2.54	3.08	2.78	2.68	2.44	0.0174	2.91
HCI-002, days in culture: 82	2.73	3.27	2.09	2.6	2.75	1.59	0.0194	2.63
HCI-002, days in culture: 91	3.43	3.15	2.38	2.79	2.2	2.58	0.0163	3.48
HCI-002, days in culture: 191	2.63	2.43	2.47	2.5	3.12	2.01	0.0155	2.73
HCI-002, days in culture: 209	2.22	2.16	2.08	2.02	2.19	1.5	0.0106	2.39
HCI-002, days in culture: 227	5.23	5.28	4.84	4.86	4.14	3.82	0.0281	5.85
HCI-008, days in culture: 228	1.79	1.66	1.49	1.85	1.83	1.5	0.0233	1.8641
HCI-008, days in culture: 244	1.41	1.81	2.11	1.99	1.83	1.84	0.0167	2.29
HCI-017.E2, days in culture: 85	2.39	3.33	2.72	2.78	3.27	1.71	0.109	2.31
HCI-023, days in culture: 111	1.15	1.13	1.06	1.2	0.941	1.06	0.00921	1.65
HCI-023, days in culture: 128	1.78	1.62	1.59	2.03	1.5	1.59	0.0109	1.69
HCI-024, days in culture: 105	1.67	1.75	1.37	1.61	1.49	1.54	0.0289	2.2
HCI-024, days in culture: 122	1.99	2.82	2.36	1.93	1.73	1.83	0.0421	2.27
HCI-024, days in culture: 163	1.68	1.9	1.49	2.11	1.77	1.88	0.0384	2.18

HCI-017.E2
Settings	CTG-3D luminescence at 96 h
12.5 pM	1.74
0.00025 µM	1.98
0.005 µM	2.09
0.1 µM	1.95
1 µM	1.79
10 µM	1.413
100 µM	0.0205
625 fM	1.96

CS(=O)(=O)c1ccc(C(=O)Nc2ccc(Cl)c(-c3ccccn3)c2)c(Cl)c1 [vismodegib]
CTG-3D luminescence at 96 h
Settings	12.5 pM	0.00025 µM	0.005 µM	0.1 µM	1 µM	10 µM	100 µM	625 fM
HCI-002, days in culture: 62	2.81	2.88	3.64	3.26	3.05	2.96	0.385	3.01
HCI-002, days in culture: 82	3.27	3.52	2.41	2.65	2.51	2.14	0.287	2.86
HCI-002, days in culture: 91	2.97	2.4	2.04	2.06	1.77	2.07	0.194	2.53
HCI-002, days in culture: 191	3.3	3.25	3.31	3.23	3.62	2.89	0.429	3.41
HCI-002, days in culture: 209	2.66	2.86	2.57	2.3	2.77	2.31	0.207	2.71
HCI-002, days in culture: 227	4.93	4.4	3.59	4.14	3.49	4.34	0.447	5.19
HCI-008, days in culture: 228	1.56	1.74	1.17	1.72	1.46	1.46	0.622	1.79
HCI-008, days in culture: 244	1.7	2.21	1.95	2.27	2.19	2.07	1.01	2.24
HCI-017.E2, days in culture: 85	2.49	2.32	2.96	2.5	2.32	1.76	0.842	2.14
HCI-023, days in culture: 111	1.92	1.62	1.41	1.48	1.15	1.34	0.248	1.6
HCI-023, days in culture: 128	1.29	1.4	1.39	1.46	1.31	1.86	0.552	1.67
HCI-024, days in culture: 105	1.78	1.57	1.53	1.77	1.64	1.97	1.09	1.64
HCI-024, days in culture: 122	1.39	1.99	2.14	2.07	2.27	2.75	1.23	2.04
HCI-024, days in culture: 163	1.93	2.3	1.87	2.29	2.2	2.36	1.4	2.01

HCI-017.E2
Settings	CTG-3D luminescence at 96 h
12.5 pM	1.53
0.00025 µM	1.93
0.005 µM	2.01
0.1 µM	1.8
1 µM	1.65
10 µM	1.67
100 µM	0.824
625 fM	1.88

CNC(=O)c1cccc(-c2ccc3c(N4CCOC[C@@H]4C)nc(N4CCOC[C@@H]4C)nc3n2)c1 [vistusertib]
CTG-3D luminescence at 96 h
Settings	12.5 pM	0.00025 µM	0.005 µM	0.1 µM	1 µM	10 µM	100 µM	625 fM
HCI-002, days in culture: 62	2.66	2.61	3.41	2.32	1.07	0.702	0.277	2.99
HCI-002, days in culture: 82	3.06	2.8	2.5	2.33	1.07	0.582	0.259	2.63
HCI-002, days in culture: 91	3.62	3.61	3.38	2.8	1.19	0.884	0.482	3.86
HCI-002, days in culture: 191	2.7	2.8	3.06	2.32	1.41	0.774	0.426	2.78
HCI-002, days in culture: 209	2.32	2.49	2.32	2.03	0.917	0.345	0.219	2.62
HCI-002, days in culture: 227	5.65	5.55	5.27	3.89	1.39	1.12	0.394	5.47
HCI-008, days in culture: 228	1.54	1.64	1.41	0.913	0.71	0.548	0.289	1.66
HCI-008, days in culture: 244	1.33	1.73	2.19	1.74	1.08	0.812	0.329	2.1
HCI-017.E2, days in culture: 85	3.03	2.04	2.83	1.99	0.732	0.76	0.421	2.95
HCI-023, days in culture: 111	1.41	1.27	1.29	1.09	0.468	0.406	0.242	1.5
HCI-023, days in culture: 128	1.83	1.59	1.44	1.27	0.78	0.864	0.541	1.7
HCI-024, days in culture: 105	1.75	1.79	1.36	1.28	0.65	0.778	0.554	1.79
HCI-024, days in culture: 122	2.25	2.36	2.05	1.84	0.987	1.07	0.813	2.77
HCI-024, days in culture: 163	1.9	2.22	1.73	2.31	1.19	0.949	0.662	1.95

HCI-017.E2
Settings	CTG-3D luminescence at 96 h
12.5 pM	1.6
0.00025 µM	2.166
0.005 µM	1.94
0.1 µM	1.38
1 µM	0.698
10 µM	0.585
100 µM	0.418
625 fM	2.18
